From patent US9518018B2, “3-alkoxy, thioalkyl and amino-4-amino-6-(substituted)picolinates and their use as herbicides” (Dow AgroSciences LLC, priority 2011, dated 2016)

Legend:
ZEAMX: corn (Zea mays) = assay: Post-Emergent Test I herbicidal activity; type: in vivo; conditions: Zea mays, post-emergence, 336 h, read-out: Visual Growth Reduction (%)-14 Days after Application ZEAMX; for pest or weed control at 140 g/ha: Table 3, 140 g ai/ha
Procedure, shortened: (§1)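 Visual injury ratings (0 = none, 100 = complete kill) taken 14 d after treatment, compared with untreated plants, feed probit-derived GR20/GR50/GR80. Application: overhead spray, 187 L/ha, highest rate and ½×-1/16× dilutions in acetone-DMSO-based aqueous spray mix with crop oil and surfactant, onto plants grown 7-21 d to first or second true leaf.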

[1] = test system: ORYSA: rice (Oryza sativa); assay: Post-Emergent Test I herbicidal activity; type: in vivo; conditions: post-emergence, 336 h, read-out: Visual Growth Reduction (%)-14 Days after Application ORYSA; for pest or weed control at 140 g/ha: Table 3, 140 g ai/ha
Procedure, shortened: (§2)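 Foliar spray, 187 L/ha, track sprayer; plants at 1st–2nd true leaf, 7–21 d old. Carrier: acetone/DMSO + aqueous acetone/IPA/crop oil/Triton X-155; high rate plus ½×–1/16× dilutions. Subirrigated; visual % injury vs untreated at 14 d.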

[2] = test system: CHEAL: lambsquarters (Chenopodium album); assay: Post-Emergent Test I herbicidal activity; type: in vivo; conditions: Chenopodium album, post-emergence, 336 h, read-out: Visual Growth Reduction (%)-14 Days after Application CHEAL; for pest or weed control at 140 g/ha: Table 3, 140 g ai/ha
Procedure, shortened: as §1

[3] = test system: CYPES: yellow nutsedge (Cyperus esculentus); assay: Post-Emergent Test I herbicidal activity; type: in vivo; conditions: post-emergence, 336 h, read-out: Visual Growth Reduction (%)-14 Days after Application CYPES; for pest or weed control at 140 g/ha: Table 3, 140 g ai/ha
Procedure, shortened: as §1

[4] = test system: ECHCG: barnyardgrass (Echinochloa crus-galli); assay: Post-Emergent Test I herbicidal activity; type: in vivo; conditions: post-emergence, 336 h, read-out: Visual Growth Reduction (%)-14 Days after Application ECHCG; for pest or weed control at 140 g/ha: Table 3, 140 g ai/ha
Procedure, shortened: as §2

[5] = test system: ABUTH: velvetleaf (Abutilon theophrasti); assay: Post-Emergent Test I herbicidal activity; type: in vivo; conditions: Abutilon theophrasti, post-emergence, 336 h, read-out: Visual Growth Reduction (%)-14 Days after Application ABUTH; for pest or weed control at 140 g/ha: Table 3, 140 g ai/ha
Procedure, shortened: as §1

[6] = test system: EPHHL: wild poinsettia (Euphorbia heterophylla); assay: Post-Emergent Test I herbicidal activity; type: in vivo; conditions: post-emergence, 336 h, read-out: Visual Growth Reduction (%)-14 Days after Application EPHHL; for pest or weed control at 140 g/ha: Table 3, 140 g ai/ha
Procedure, shortened: as §1

`COc1c(C(=O)O)nc(-c2cc(F)c(I)cc2F)c(F)c1N` [Compound 60] gave a pest or weed control at 70 g/ha (ZEAMX: corn (Zea mays); Table 3, 70 g ai/ha) of 75%, a pest or weed control at 70 g/ha ([1]; Table 3, 70 g ai/ha) of 15% and a pest or weed control at 70 g/ha ([2]; Table 3, 70 g ai/ha) of 90%. The pest or weed control at 70 g/ha ([3]; Table 3, 70 g ai/ha) was 50%, the pest or weed control at 70 g/ha ([4]; Table 3, 70 g ai/ha) was 95% and the pest or weed control at 70 g/ha ([5]; Table 3, 70 g ai/ha) was 60%. The pest or weed control at 70 g/ha ([6]; Table 3, 70 g ai/ha) was 100% and the melting point was 132 to 134 °C.

`CSc1c(C(=O)O)nc(Cl)c(F)c1N` [Compound 73] showed a pest or weed control at 140 g/ha (ZEAMX: corn (Zea mays)) of 0%, a pest or weed control at 140 g/ha [1] of 0% and a pest or weed control at 140 g/ha [2] of 10%. It also gave a pest or weed control at 140 g/ha [3] of 0%, a pest or weed control at 140 g/ha [4] of 0% and a pest or weed control at 140 g/ha [5] of 10%. It also gave a pest or weed control at 140 g/ha [6] of 50% and a melting point of 176 to 178 °C.

For `COC(=O)c1nc(-c2ccc(Cl)c(N(C)C)c2F)c(F)c(N)c1OC` [Compound 43], the pest or weed control at 140 g/ha (ZEAMX: corn (Zea mays)) was 70%, the pest or weed control at 140 g/ha [1] was 0% and the pest or weed control at 140 g/ha [2] was 100%. It also gave a pest or weed control at 140 g/ha [3] of 50%, a pest or weed control at 140 g/ha [4] of 80% and a pest or weed control at 140 g/ha [5] of 90%. For the same compound, the pest or weed control at 140 g/ha [6] was 100% and the melting point was 113 to 115 °C.

Work on `COC(=O)c1nc(-c2ccc(Cl)cc2)cc(N(C)C)c1N` [Compound 87, Methyl 3-amino-6-(4-chlorophenyl)-4-(dimethylamino)picolinate] yielded a pest or weed control at 140 g/ha (ZEAMX: corn (Zea mays)) of 0%, a pest or weed control at 140 g/ha [1] of 0% and a pest or weed control at 140 g/ha [2] of 90%. It also gave a pest or weed control at 140 g/ha [3] of 90%, a pest or weed control at 140 g/ha [4] of 40% and a pest or weed control at 140 g/ha [5] of 90%. It also gave a pest or weed control at 140 g/ha [6] of 100% and a melting point of 153 to 154 °C.

`COc1c(C(=O)O)nc(-c2ccc(Cl)c(F)c2)c(F)c1N` [Compound 49] showed a pest or weed control at 140 g/ha (ZEAMX: corn (Zea mays)) of 90%, a pest or weed control at 140 g/ha [1] of 25% and a pest or weed control at 140 g/ha [2] of 100%. For the same compound, the pest or weed control at 140 g/ha [3] was 100%, the pest or weed control at 140 g/ha [4] was 100% and the pest or weed control at 140 g/ha [5] was 100%. For the same compound, the pest or weed control at 140 g/ha [6] was 100% and the melting point was 137 °C.

`COc1c(C(=O)O)nc(-c2ccc(I)cc2F)c(F)c1N` [Compound 62] showed a pest or weed control at 140 g/ha (ZEAMX: corn (Zea mays)) of 75%, a pest or weed control at 140 g/ha [1] of 8% and a pest or weed control at 140 g/ha [2] of 100%. For the same compound, the pest or weed control at 140 g/ha [3] was 50%, the pest or weed control at 140 g/ha [4] was 100% and the pest or weed control at 140 g/ha [5] was 15%. It also gave a pest or weed control at 140 g/ha [6] of 100% and a melting point of 143 to 145 °C.

Work on `COc1c(C(=O)O)nc(-c2ccc(C(F)(F)F)c(F)c2F)c(F)c1N` [Compound 56] yielded a pest or weed control at 140 g/ha (ZEAMX: corn (Zea mays)) of 75%, a pest or weed control at 140 g/ha [1] of 10% and a pest or weed control at 140 g/ha [2] of 90%. The pest or weed control at 140 g/ha [3] was 50%, the pest or weed control at 140 g/ha [4] was 100% and the pest or weed control at 140 g/ha [5] was 80%. For the same compound, the pest or weed control at 140 g/ha [6] was 100% and the melting point was 133 to 135 °C.

Compound `COC(=O)c1nc(-c2ccc3c(c2)OCO3)c(F)c(N)c1OC` [Compound 37] has a pest or weed control at 140 g/ha (ZEAMX: corn (Zea mays)) of 75%, a pest or weed control at 140 g/ha [1] of 0% and a pest or weed control at 140 g/ha [2] of 100%. The pest or weed control at 140 g/ha [3] was 100%, the pest or weed control at 140 g/ha [4] was 100% and the pest or weed control at 140 g/ha [5] was 55%. For the same compound, the pest or weed control at 140 g/ha [6] was 100% and the melting point was 110 to 112 °C.

Work on `COC(=O)c1nc(Cl)c(F)c(N)c1SC` [Compound 74, Methyl 4-amino-6-chloro-5-fluoro-3-(methylthio)picolinate] yielded a pest or weed control at 140 g/ha (ZEAMX: corn (Zea mays)) of 0%, a pest or weed control at 140 g/ha [1] of 0% and a pest or weed control at 140 g/ha [2] of 0%. For the same compound, the pest or weed control at 140 g/ha [3] was 0%, the pest or weed control at 140 g/ha [4] was 0% and the pest or weed control at 140 g/ha [5] was 0%. It also gave a pest or weed control at 140 g/ha [6] of 0% and a melting point of 75 to 77 °C.
